Values joined by “and” are separate entries in the source; they are usually repeats but may differ in a detail not shown here. Equal entries are not always repeated. Where two headings read alike, the source gives them in different places.
What was measured:
human CB1 receptor [1] = molecular target: T1, human CB1 receptor (Homo sapiens, UniProt P21554); experiment: Functional cell-based CRE β-gal assay, CB1 (adenylate cyclase activity)
T1 construct: expressed in transfected cells; host or cells: SK-N-MC cells, stably transfected with pcDNA3 CB-1 (human)
Description: (§1) The CB1 and CB2 receptors are G-protein coupled receptors (GPCR), which influence cell function via the Gi-protein. These receptors modulate the activity of intracellular adenylate cyclase, which in turn produces the intracellular signal messenger cyclic-AMP (cAMP).
(§2) At baseline, or during non-ligand bound conditions, these receptors are constitutively active and tonically suppress adenylate cyclase activity. The binding of an agonist causes further receptor activation and produces additional suppression of adenylate cyclase activity. The binding of an inverse agonist inhibits the constitutive activity of the receptors and results in an increase in adenylate cyclase activity.
(§3) By monitoring intracellular adenylate cyclase activity, the ability of compounds to act as agonists or inverse agonists can be determined.
(§4) Test compounds were evaluated in SK-N-MC cells which, using standard transfection procedures, were stably transfected with human cDNA for pcDNA3-CRE β-gal and pcDNA3 CB1 receptor (human) or pcDNA3 CB2 receptor (human). By expressing CRE β-gal, the cells produced β-galactosidase in response to CRE promoter activation by cAMP. Cells expressing CRE β-gal and either the human CB1 or CB2 receptor will produce less β-galactosidase when treated with a CB1/CB2 agonist and will produce more β-galactosidase when treated with a CB1/CB2 inverse agonist.
(§5) The cells were grown in 96-well plates under standard cell culture conditions at 37° C. in a 5% CO2 atmosphere. After 3 days, the media was removed and a test compound in media (wherein the media was supplemented with 2 mM L-glutamine, […] sodium pyruvate, 0.1% low fatty acid FBS (fetal bovine serum) and antibiotics) was added to the cell. The plates were incubated for 30 minutes at 37° C. and the plate cells were then treated with forskolin over a 4-6 hour period, then washed and lysed. The β-galactosidase activity was quantitated using commercially available kit reagents (Promega Corp. Madison, Wis.) and a Vmax Plate Reader (Molecular Devices, Inc).
(§6) The change in β-galactosidase activity was determined by setting a vehicle treated cell's activity value at 100% and expressing the β-galactosidase activity measured in a corresponding compound treated cell as a percent of the vehicle treated cell activity.
The EC50 value for functional activity for compounds tested was calculated by linear regression and was obtained from studies in which varying compound concentrations were used. Data provided for certain compounds is represented by percent change (%) in functional activity at a single test concentration: ^(1)10 μM and ^(2)1 μM.

CB2 receptor [2] = molecular target: T2, CB2 receptor (Homo sapiens, UniProt P34972); experiment: Functional cell-based CRE β-gal assay, CB2 (adenylate cyclase activity)
T2 construct: expressed in transfected cells; host or cells: SK-N-MC cells, stably transfected with pcDNA3 CB-2 (human)
Description: as §1, §2, §3, §4, §5
For cells expressing CRE β-gal and the CB2 receptor, CB2 agonists reduced β-galactosidase activity in a dose-dependent manner and CB2 inverse agonists increase β-galactosidase activity in a dose-dependent manner.
as §6
The EC50 value for functional activity for compounds tested was calculated by linear regression and was obtained from studies in which varying compound concentrations were used.
The value of 29% for Compound 5 represents change in functional activity and was obtained from a study in which one compound concentration was used.

human CB1 receptor [3] = molecular target: T1, human CB1 receptor; experiment: Binding assay for CB1 ([3H]-CP-55,940 displacement, SK-N-MC membranes); details: for IC50: Cannabinoid CB1 Receptor Binding IC50, radioligand CP-55,940 0.2 nM, SK-N-MC membranes; for inhibition at 0.2 µM: test concentration 0.2 μM (footnote 3)
Protocol: (§7) The human CB1 and CB2 receptors were stably expressed in SK-N-MC cells transfected with pcDNA3 CB-1 (human) or pcDNA3 CB-2 (human). The cells were grown in T-180 cell culture flasks under standard cell culture conditions at 37° C. in a 5% CO2 atmosphere. The cells were harvested by trysinization and homogenized in a homogenization buffer (10 mM Tris, 0.2 mM MgCl2, 5 mM KCl, with protease inhibitors aprotinin, leupeptin, pepstatin A and bacitracin) and centrifuged (2000 g). The supernatant was then centrifuged in 2M sucrose (31,300 g) to produce a semi-purified membrane pellet. The pellet was resuspended in homogenization and stored at −80° C.
(§8) On the day of the assay, the pellet was thawed on ice and diluted in assay buffer (50 mM Tris-HCl, 5 mM MgCl2, 2.5 mM EDTA, 0.5 mg/mL fatty acid free bovine serum albumin, pH 7.5). The diluted membrane pellet was added with buffer, either a test compound or vehicle standard and the radioligand [H]^3+-CP-55,940 (0.2 nM) to the wells of a 96-well polypropylene plate. Non-specific binding was measured in wells containing WIN 55,212 (10 uM). The plate was covered and incubated for 90 minutes at 30° C. The contents were then aspirated onto a Packard Unifilter GF/C filter bottom plate prewet with 0.5% polyethyleneimine. The wells of the polypropylene plate were rinsed and aspirated seven times with a 0.9% saline-0.5% Tween 20 solution. The Unifilter plate was dried, scintillation cocktail was added to each well and the counts representing binding were quantitated in a TopCount scintillation counter.
(§9) For compounds tested, an IC50 binding value was obtained from percent inhibition studies in which various test concentrations were used. The binding value was calculated by linear regression.
(§10) For compounds without an IC50 binding value, the percent inhibition (%) was obtained at a test concentration of ^(1)10 μM, ^(2)1 μM, ^(3)0.2 μM, ^(4)0.003 μM, ^(5) represents an average value.

CB2 receptor [4] = molecular target: T2, CB2 receptor; experiment: Binding assay for CB2 ([3H]-CP-55,940 displacement, SK-N-MC membranes)
Protocol: as §7, §8, §9, §10

[5] = read-out: CB2 receptor binding percent inhibition
[6] = read-out: CB1 receptor binding percent inhibition
[7] = test concentration 0.2 μM (footnote 3), read-out: CB2 receptor binding percent inhibition

T2 sequence (P34972 whole entry): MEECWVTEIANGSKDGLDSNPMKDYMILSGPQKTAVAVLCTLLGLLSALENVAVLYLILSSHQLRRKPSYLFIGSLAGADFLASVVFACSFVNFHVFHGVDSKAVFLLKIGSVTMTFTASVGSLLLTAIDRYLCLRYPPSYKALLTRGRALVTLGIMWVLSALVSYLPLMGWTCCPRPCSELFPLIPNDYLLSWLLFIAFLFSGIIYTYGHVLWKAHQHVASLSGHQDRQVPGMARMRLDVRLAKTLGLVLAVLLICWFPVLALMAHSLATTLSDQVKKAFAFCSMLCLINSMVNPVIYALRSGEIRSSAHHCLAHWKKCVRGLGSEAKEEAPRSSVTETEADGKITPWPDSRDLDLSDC
T1 sequence (P21554 whole entry): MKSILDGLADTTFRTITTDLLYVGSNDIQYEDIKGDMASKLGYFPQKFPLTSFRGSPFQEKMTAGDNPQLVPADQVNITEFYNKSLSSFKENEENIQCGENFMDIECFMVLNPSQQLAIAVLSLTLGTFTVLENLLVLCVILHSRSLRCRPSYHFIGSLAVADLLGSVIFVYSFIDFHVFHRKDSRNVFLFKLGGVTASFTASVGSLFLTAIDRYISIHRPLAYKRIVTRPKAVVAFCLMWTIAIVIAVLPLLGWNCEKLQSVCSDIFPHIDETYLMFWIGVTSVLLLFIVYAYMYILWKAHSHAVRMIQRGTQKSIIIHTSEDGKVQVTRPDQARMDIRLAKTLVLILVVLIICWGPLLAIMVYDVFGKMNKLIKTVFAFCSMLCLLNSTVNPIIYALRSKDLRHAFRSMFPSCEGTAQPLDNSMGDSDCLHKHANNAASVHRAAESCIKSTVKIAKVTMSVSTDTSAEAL

Compound	EC50 (human CB1 receptor [1])	EC50 (CB2 receptor [2])	IC50 (human CB1 receptor [3])	inhibition at 0.2 µM (human CB1 receptor [3]; [6])	other results
COC[C@H](NC(=O)c1n[nH]c2c1CCCCC[C@H]2Cc1cccc(Cl)c1)c1ccccc1 (relative stereo) [Cpd 26, (9S*)-(3-chloro-benzyl)-4,5,6,7,8,9-hexahydro-1H-cyclooctapyrazole-3-carboxylic acid [(1R)-2-methoxy-1-phenyl-ethyl]-amide]	0.07 µM	0.005 µM	–	–	–
O=C(NN1CC2CCCC2C1)c1nn(-c2ccc(Cl)cc2Cl)c2c1CCCCC/C2=C\c1ccc(F)cc1 (stereo not drawn) [Cpd 18, (9E)-1-(2,4-dichloro-phenyl)-9-(4-fluoro-benzylidene)-4,5,6,7,8,9-hexahydro-1H-cyclooctapyrazole-3-carboxylic acid (hexahydro-cyclopenta[c]pyrrol-2-yl)-amide]	0.02 µM	–	0.05 µM	–	–
O=C(NC(CO)c1ccccc1)c1n[nH]c2c1CCCCCC2Cc1cccc(Cl)c1 [Cpd 22, (9S*)-(3-chloro-benzyl)-4,5,6,7,8,9-hexahydro-1H-cyclooctapyrazole-3-carboxylic acid [(1R)-2-hydroxy-1-phenyl-ethyl]-amide]	0.114 µM	0.003 µM	–	–	–
O=C(N[C@H](CO)c1ccccc1)c1n[nH]c2c1CCCCC[C@H]2Cc1cccc(Cl)c1 (relative stereo) [Cpd 25, (9S*)-(3-chloro-benzyl)-4,5,6,7,8,9-hexahydro-1H-cyclooctapyrazole-3-carboxylic acid [(1S)-2-hydroxy-1-phenyl-ethyl]-amide]	> 5 µM	0.014 µM	–	–	–
CCOC(=O)C1(NC(=O)c2nn(C3CCCCC3)c3c2CCCCCC3)CC2CCC1C2 (stereo not drawn) [Cpd 4, 2-[(1-cyclohexyl-4,5,6,7,8,9-hexahydro-1H-cyclooctapyrazole-3-carbonyl)-amino]-bicyclo[2.2.1]heptane-2-carboxylic acid ethyl ester]	–	–	0.06 µM	–	inhibition at 0.003 µM (CB2 receptor [4]; [5]): 74%; CB1 receptor percent change in functional activity (human CB1 receptor [1]; single test concentration 1 μM (footnote 2)): ^(2)−71%
C[C@H](NS(=O)(=O)/C=C/c1n[nH]c2c1CCCCCC2Cc1cccc(Cl)c1)c1ccccc1 (stereo partly drawn) [Cpd 21, (2E)-[9-(3-chloro-benzyl)-4,5,6,7,8,9-hexahydro-1H-cyclooctapyrazol-3-yl]-ethenesulfonic acid [(1S)-1-phenyl-ethyl]-amide]	> 5 µM	0.347 µM	–	–	–
C[C@@H](NC(=O)c1nn(-c2ccc(Cl)cc2Cl)c2c1CCCCC/C2=C\c1ccc(F)cc1)C1CCCCC1 [Cpd 17, (9E)-1-(2,4-dichloro-phenyl)-9-(4-fluoro-benzylidene)-4,5,6,7,8,9-hexahydro-1H-cyclooctapyrazole-3-carboxylic acid [(1R)-1-cyclohexyl-ethyl]-amide]	0.04 µM	–	0.01 µM	86%	inhibition at 0.2 µM (CB2 receptor [4]; [5]): 25%
O=C(c1nn(-c2ccc(Cl)cc2Cl)c2c1CCCCC/C2=C\c1ccc(F)cc1)N1CCCCC1 [Cpd 14, (9E)-[1-(2,4-dichloro-phenyl)-9-(4-fluoro-benzylidene)-4,5,6,7,8,9-hexahydro-1H-cyclooctapyrazol-3-yl]-piperidin-1-yl-methanone]	–	–	–	50%	inhibition at 0.2 µM (CB2 receptor [4]; [7]): 28%
C[C@@H](NC(=O)c1nn(-c2ccc(Cl)cc2Cl)c2c1CCCCC/C2=C\c1ccc(F)cc1)c1ccccc1 [Cpd 12, (9E)-1-(2,4-dichloro-phenyl)-9-(4-fluoro-benzylidene)-4,5,6,7,8,9-hexahydro-1H-cyclooctapyrazole-3-carboxylic acid [(1R)-1-phenyl-ethyl]-amide]	0.01 µM	–	0.008 µM	89%	inhibition at 0.2 µM (CB2 receptor [4]; [5]): 18%
COc1ccc([C@H](C)NS(=O)(=O)/C=C/c2n[nH]c3c2CCCCCC3Cc2cccc(Cl)c2)cc1 (stereo partly drawn) [Cpd 20, (2E)-[9-(3-chloro-benzyl)-4,5,6,7,8,9-hexahydro-1H-cyclooctapyrazol-3-yl]-ethenesulfonic acid [(1S)-1-(4-methoxy-phenyl)-ethyl]-amide]	> 5 µM	≥ 5 µM	–	–	–
O=C(N[C@H](CO)c1ccccc1)c1n[nH]c2c1CCCCC[C@@H]2Cc1cccc(Cl)c1 (relative stereo) [Cpd 24, (9R*)-(3-chloro-benzyl)-4,5,6,7,8,9-hexahydro-1H-cyclooctapyrazole-3-carboxylic acid [(1S)-2-hydroxy-1-phenyl-ethyl]-amide]	> 5 µM	0.124 µM	–	–	–
O=C(N[C@@H](CO)c1ccccc1)c1n[nH]c2c1CCCCCC2Cc1cccc(Cl)c1 (stereo in doubt) [Cpd 23, (9R*)-(3-chloro-benzyl)-4,5,6,7,8,9-hexahydro-1H-cyclooctapyrazole-3-carboxylic acid [(1R)-2-hydroxy-1-phenyl-ethyl]-amide]	–	–	–	–	EC50 (human CB1 receptor [1]; SK-N-MC cells, CRE β-gal, forskolin, agonist, read-out: CB1 Receptor Functional Agonist Activity EC50): 0.088 µM; EC50 (CB2 receptor [2]; SK-N-MC cells, CRE β-gal, forskolin, agonist, read-out: CB2 Receptor Functional Agonist Activity EC50): 0.011 µM
CC(NC(=O)c1nn(C2CCCCC2)c2c1CCCCCC2)C12CC3CC(CC(C3)C1)C2 (stereo not drawn) [Cpd 6, 1-cyclohexyl-4,5,6,7,8,9-hexahydro-1H-cyclooctapyrazole-3-carboxylic acid (1-adamantan-1-yl-ethyl)-amide]	–	0.029 µM	0.3 µM	–	inhibition at 1 µM (human CB1 receptor [3]; test concentration 1 μM (footnote 2), read-out: CB1 receptor binding percent inhibition): 86%; IC50 (CB2 receptor [4]; Cannabinoid CB2 Receptor Binding IC50, radioligand CP-55,940 0.2 nM, SK-N-MC membranes): 0.0006 µM and 0.0007 µM; inhibition at 1 µM (CB2 receptor [4]; [5]): 91%
C[C@@H](NC(=O)c1nn(-c2ccc(Cl)cc2Cl)c2c1CCCCC/C2=C\c1ccc(F)cc1)c1ccccn1 [Cpd 13, (9E)-1-(2,4-dichloro-phenyl)-9-(4-fluoro-benzylidene)-4,5,6,7,8,9-hexahydro-1H-cyclooctapyrazole-3-carboxylic acid [(1R)-1-pyridin-2-yl-ethyl]-amide]	0.002 µM	–	0.008 µM	90%	inhibition at 0.2 µM (CB2 receptor [4]; [5]): 11%
O=C(NNc1ccc(Cl)cc1Cl)c1nn(-c2ccc(Cl)cc2Cl)c2c1CCCCC/C2=C\c1ccc(F)cc1 [Cpd 11, (9E)-1-(2,4-dichloro-phenyl)-9-(4-fluoro-benzylidene)-4,5,6,7,8,9-hexahydro-1H-cyclooctapyrazole-3-carboxylic acid N'-(2,4-dichloro-phenyl)-hydrazide]	–	–	–	56%	inhibition at 0.2 µM (CB2 receptor [4]; [7]): 30%
COC[C@H](NC(=O)c1n[nH]c2c1CCCCC[C@@H]2Cc1cccc(Cl)c1)c1ccccc1 (relative stereo) [Cpd 27, (9R*)-(3-chloro-benzyl)-4,5,6,7,8,9-hexahydro-1H-cyclooctapyrazole-3-carboxylic acid [(1R)-2-methoxy-1-phenyl-ethyl]-amide]	0.043 µM	0.026 µM	–	–	–
